Measurements reported in article PMC8333425, “Discovery of a dual Ras and ARF6 inhibitor from a GPCR endocytosis screen” (Nature Communications, 2021).
“And” between values parts separate entries of the source, which are not always exact repeats. Identical values can stand only once. “Also recorded” adds a separate entry of the source.

Key:
H-Ras [1] = target: H-Ras (Homo sapiens, UniProt P01112); assay: In vitro mant-GTP exchange assay, purified H-Ras with purified SOS1; type: biochemical; parameters: the cDNA of H-Ras (full length) was obtained by RT-PCR of HEK293SL; GST (N); host or cells: E. coli BL21; conditions: 50 μM
Experimental: Ras activity was assessed in a 384-well black bottom plate using the mant-GTP exchange factor assay that measures the uptake of the fluorescent nucleotide analog N-methylanthraniloyl-GTP (mant-GTP) into GTPases. For Ras activation, 2X exchange buffer, 1.66 μg of purified pGEX-6P-1-H-Ras or pGEX-6P-1-K-Ras-WT or pGEX-6P-1-K-Ras-Y32A were added per well in presence of DMSO, different concentrations of Rasarfin (as indicated) or 50 µM of compounds 21.4, 21.7, or 21.8. Using the Infinite 200 Pro plate reader (Tecan) with filters set at 360 nm and 440 nm for detecting the excitation and emissions, respectively, and temperature set at 20 °C, 5 readings were recorded every 5 s before the addition of either H2O, 40 mM EDTA or 0.66 μg purified SOS1. The fluorescence of mant-GTP uptake was measured every 30 sec for 30 min and quantified as the delta relative fluorescence units (RFU), which was calculated as the RFU post-addition minus the 5 averaged RFU pre-addition, per condition.

[2] = test system: ERK1/2 activation by AT1R; assay: Western blot of AT1R-mediated ERK1/2 phosphorylation; type: cell-based, human; conditions: 50 μM
Experimental: HEK293SL cells (10^5 cells per well) were seeded in a poly-L-lysine-coated six-well plate and transiently transfected with 3 μg Flag-AT1R, HA-B2R or HA-β2AR and/or 500 ng Flag-MEK1-WT, Flag-MEK1-DD, Flag-BRAF-WT, Flag-BRAF-V600E, Flag-K-Ras-WT, Flag-K-Ras-G12V, HA-ARF6-WT, or HA-ARF6-T27N. Gαq/11 KO and βarr1/2 KO cells were seeded onto 100 mm dishes at a density of 10^6 cells per dish. Next day, cells were transfected with 3 μg AT1R alone or along with 500 ng of β-arrestin2 using PEI. After 18 h of transfection, cells were detached and re-seeded onto poly-L-lysine coated 12-well plates (~1.5–2 × 10^5cells/well) for subsequent experiments. Forty-eight hours post transfection, in a 37 °C water bath, cells were serum-starved for 30 min, pretreated with DMSO (0.1%) or compound 21/Rasarfin (50 µM or at indicated concentrations) for 30 min, then stimulated or not with the indicated ligand [AngII (1 µM), BK (1 µM), Iso (10 µM) or EGF (100 ng/ml)] at indicated times. Cells were put on ice, washed with PBS and solubilized in 2x laemmli buffer (250 mM Tris–HCl pH 6.8, 2% SDS (w/v), 10% glycerol (v/v), 0.01% bromophenol blue (w/v) and 5% β-mercaptoethanol (v/v)) by heating at 65 °C for 15 min. Lysates were resolved on 10 or 14% SDS-PAGE, transferred to nitrocellulose membranes and immunoblotted for p-ERK1/2, ERK1/2, p-Akt, Akt, HA, Myc, β-actin or FLAG. ImageLab 5.2 software was used to quantify the digital blots as fold of the phosphorylated protein over total protein, which were then normalized as indicated in the figure legends. Uncropped immunoblots are provided in the Source Data file.

MDA-MB-231 cells [3] = assay: Cell proliferation assay (IncuCyte confluence), MDA-MB-231; type: cell-based, human; conditions: 10 µM
Experimental: Cell proliferation was measured by a label-free, non-invasive cellular confluence assay using IncuCyte Live-Cell Imaging Systems (Essen Bioscience, Ann Arbor, MI, USA). MDA-MB-231 breast cancer and A549 lung carcinomas cells (1500 cells in 150 μl/well) were seeded overnight on a clear 96-well plate. Twenty-four hours later, the cells were treated with 0.1% DMSO, or different concentrations of Rasarfin (as indicated), or 10 µM of 21.4 or 21.8 for 96 h total. The plate was placed in an XL-3 incubation chamber maintained at 37 °C and the cells were photographed using a ×4 objective, every 3 h for 4 days. Cell confluence was calculated using IncuCyte S3 software (2019A) and cell proliferation was expressed as an increase in the percentage of confluence. Experiments were done in triplicate and repeated three times.

AT1R = assay: Endosomal BRET assay of AngII-mediated AT1R internalization (AT1R-RlucII / Endo-rGFP; HTS, validation, concentration-response); type: cell-based, human; conditions: 50 μM
Description: We performed a HT campaign in HEK293 cells using the bystander endosomal BRET sensor, which consists of a Renilla luciferase (RlucII)-tagged AT1R and an acceptor renilla GFP (rGFP) anchored to endosomes through an Endofin-FYVE (Endo-rGFP) domain[12]. AngII-mediated trafficking of AT1R to endosomes was screened against commercial libraries of ~115,000 small molecules (Fig. 1a and Supplementary Data 1). Because our assay is based on luminescence and fluorescence, we excluded 6610 compounds that quenched more than 50% of the luciferase or GFP signals. After excluding 5 AT1R antagonists, we conserved hit compounds blocking by more than 40%, as well as those potentiating by more than 100% receptor internalization. From this collection of 943 compounds, a second validation on AT1R internalization was performed using the same BRET assay, as well as on the agonist-mediated B2R internalization, this time using B2R-RlucII and Endo-rGFP. Only compounds that were revalidated on AT1R and affected B2R endocytosis were kept, which included forty hits (20 potentiators and 20 inhibitors) (Fig. 1b and Supplementary Data 2). We focused on inhibitors that were commercially available at the beginning of the project and tested their cell toxicity by microscopy, looking at cells expressing B2R tagged with YFP, which highlights cell contours and potential morphological changes, such as rounding up of cells following treatment with 50 μM of the compounds that may have indicated cell death. None of the inhibitors tested caused abnormal cell morphological changes when cells were treated with compounds as compared to DMSO-treated cells. Inhibitors were also assessed in terms of structure novelty, derivatization potential, and commercial availability of analogs (within 95–98% similarity from Tanimoto metric, Sci-Finder, https://scifinder-n.cas.org), for structure-activity relationship studies (SAR). They were scored 1–5, from best to worst. We excluded compounds with potential nucleophilic reactivity (e.g., Michael addition: compounds 7, 26, and 27), those reported to have biological activities (compounds 8, 20, 25, 30, and 35) and/or showing autofluorescence (compound 26). Compound 19 ranked high, but only had one other molecule with a similar structure available. Although other molecules could be interesting in their own rights as endocytosis inhibitors (e.g., compounds 1, 9, 11, 12, 13, 24, 31, and 37), we focused on compound 21 (Fig. 1c) because not only did it rank high in our analysis, but it was also the only compound with substantially more similar analogs commercially available at the time of these investigations. In the screen and the follow-up validation assay, 21 inhibited more than 50% AT1R internalization and more than 65% B2R internalization (Supplementary Data 2). […] Because β-arrestins are critically involved in GPCR endocytosis and trafficking in cells, we assessed 21’s effects on β-arrestins’ recruitment to AT1R and B2R at the PM using a BRET assay, as well as their trafficking into endosomes by microscopy.
The chemical library used for initial screening was from Chembridge DiverSet™ (60,000 compounds), Maybridge HitFinder™ (16,000 compounds), Maybridge (selected, 16,000 compounds), SPECS (selected, 16000 compounds), Microsource Discovery Spectrum (2000 compounds), Biomol (natural products, 500 compounds), Prestwick (commercialized products, 1120 compounds), SIGMA LopacTM (1280 compounds) and internal collection (synthesized at Université de Montréal-IRIC, ~4000 compounds). Compounds were all assigned an Université de Montréal number (UM) for internal use. Screen was performed at IRIC HTS facility. KINOMEscan™ profiling was serviced by Eurofin/DiscoverX (San Diego, USA).
HEK293SL cells were seeded at a density of 7.5 × 10^5 cells per 100-mm dish and 24 h later, transiently transfected as such. […]

MDA-MB-231 cells [4] = assay: Cell viability assay (MTT), MDA-MB-231; type: cell-based, human; conditions: for cell viability (MTT signal): S_Fig12f, listed as Comp 21.4
Experimental: MDA-MB-231 breast cancer cells and A549 lung carcinomas (1500 cells in 150 μl/well) were seeded overnight on a clear 96-well plate. Twenty-four hours later, the cells were treated with 0.1% DMSO, or different concentrations of Rasarfin (as indicated), or 10 µM of 21.4, 21.8 (MDA-MB-231 breast cancer cells) or Doxorubicin for the indicated times at 37 °C. At each time point, 10 μl of 5 mg/ml MTT was added to each well and the plates were incubated for an additional 4 h at 37 °C. The absorbance at 590 nm was measured by plate reader. Experiments were done in triplicate and repeated three times.

Ras = test system: Ras; parameters: method as in PMID 22431598; conditions: cited from earlier work
H-Ras [5] = test system: H-Ras; parameters: method as in PMID 27265506; conditions: cited from earlier work

Chain of H-Ras (Homo sapiens, UniProt P01112) (P01112 whole entry): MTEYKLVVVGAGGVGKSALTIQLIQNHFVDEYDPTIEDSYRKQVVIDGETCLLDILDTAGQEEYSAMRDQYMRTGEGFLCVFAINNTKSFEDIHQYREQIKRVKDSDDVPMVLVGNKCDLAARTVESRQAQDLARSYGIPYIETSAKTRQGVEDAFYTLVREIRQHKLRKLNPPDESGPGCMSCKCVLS

Row | Compound | Ras exchange activity, mant-GTP loading into H-Ras with SOS1 (Fig. 8c) (H-Ras [1]) | inhibition of AT1R-mediated ERK1/2 (MAPK) activation (Fig. 8b) [2] | inhibition of AT1R internalization into endosomes (Fig. 8a) (AT1R) | other results
1 | CC(C)C(=O)N1CCN(c2ccc(NC(=O)c3cc4ccccc4o3)cc2)CC1 [Compound 21.4] | lacks Ras and MAPK inhibitory activities; also recorded: had no effect | lacks Ras and MAPK inhibitory activities | did not inhibit AT1R internalization | MDA-MB-231 cell proliferation (confluency) (MDA-MB-231 cells [3]): only 21.8, which efficiently inhibits MAPK as well as Rasarfin, inhibited cell proliferation; metabolic activity of MDA-MB-231 cells (MTT) (MDA-MB-231 cells [4]; 10 µM): moderately decreasing the metabolic activity of cancer cells; cell viability (MTT signal) (MDA-MB-231 cells [4]; 24h): 0.2634 and 0.244 and 0.2; cell viability (MTT signal) (MDA-MB-231 cells [4]; 48h): 0.339 and 0.3215 and 0.2045
2 | CCC(=O)N1CCN(c2ccc(NC(=O)c3cccs3)cc2Cl)CC1 [Compound 21.7] | had no effect | lost their ability to inhibit MAPK | loss of compounds’ efficacy to inhibit AT1R internalization | –
3 | Cc1[nH]c2cc(Cl)cc(Cl)c2c1CCN [DCAI, 4,6-dichloro-2-methyl-3-aminoethyl-indole] | – | – | – | SOS binding to Ras and nucleotide exchange (Ras): blocks SOS binding to Ras but only inhibits the nucleotide exchange catalyzed by SOS
4 | NAV-2729 | – | – | – | block of H-Ras (H-Ras [5]): inefficacious to block H-Ras
